Assay results published in US10500169B2, “Supression of IgE production by compounds derived from traditional chinese medicine” (Sean N. Parker Foundation, priority 2014, dated 2019).

Experiments:
[1] = tested on: T-bet; assay: RT-PCR gene expression in stimulated PBMCs: T-bet; assay type: cell-based, human; conditions: 10 μg/mL
Description: (§1) Quantitative real time PCR was used to detect the epsilon germline transcription. Human PBMC cells (1.5×10^6 cells/mL) were co-incubated with DMF-C1 compound (10 μg/mL) at 37° C. under 5% CO2 for 4 days. Cells were then harvested and total RNA was isolated using Trizol reagent (Gibco BRL, Rockville, Md.) following the manufacturer's instructions. The RNA concentrations were then quantified by triplicate optical density (OD) readings (Bio-Rad SmartSpect 3000; Bio-Rad, Hercules, Calif.). The reverse transcription was performed to get the cDNA using ImProm-II™ Reverse Transcriptase (Promega Corporation, Madison, Wis.) as described by the manufacturer's instructions. The RT-PCR amplification was performed using Maxima™ SYBR Green qPCR Master Mix (2×) kit (Fisher Scientific, Pittsburgh, Pa.) with epsilon germline primers or GAPDH primers. The primer sequences were listed as εGLT forward: 5′-[…]-3′; εGLT reverse: 5′-[…]-3′; GAPDH-forward: 5′-[…]-3′; GAPDH-reverse: 5′-[…]-3′; STAT3-forward: 5′-[…]-3′; STAT3-reverse: 5′-[…]-3′; T-bet-forward: 5′-[…]-3′; T-bet-reverse: 5′-[…]-3′; IFN-γ-forward: 5′-[…]-3′; IFN-γ-reverse: 5′-[…]-3′; IL-10-forward: 5′-[…]-3′; IL-10-reverse: 5′-[…]-3′. IL-5-forward. 5′-[…] TGCA-3′; IL-5-reverse: 5′-[…]-3′. All primers were synthesized by Sigma-Aldrich Corporation (St. Louis, Mo.).

[2] = tested on: U266 cells; assay: Cell viability of U266 cells, trypan blue exclusion; assay type: cell-based, human; conditions: at the concentrations tested
Description: Cell viability was evaluated using a trypan blue exclusion as previously described. Briefly, a 10 μl of cells suspension from each culture was mixed with equal volume of trypan blue dye. The mixture was loaded into a hemocytometer and cells were counted under a microscope. The percentage of viable cells was calculated as follows: Viable cells (%)=(total number of viable cells)/(total number of cells)×100.

[3] = tested on: Foxp3; assay: RT-PCR gene expression in stimulated PBMCs: Foxp3; assay type: cell-based, human; conditions: 10 μg/mL
Description: as §1

[4] = In vivo pharmacokinetics study of berberine bioavailability, serum LC-MS; conditions: C3H/HeJ, mouse, oral berberine 2 mg, with or without Angelica sinensis 10 mg, 1 hr after administration, read-out: Concentration of berberine in serum from mice
Description: C3H/Hej mice were purchased from Jackson laboratory (Bar Harbor, Me.) and maintained in the animal facility at Mount Sinai School of Medicine^(39). Standard guidelines for the care and use of animals were followed (Institute of Laboratory Animal Resources Commission of Life Sciences, 1996). In order to study the bioavailability, C3H/Hej mice were randomly separated into two groups. Mice were fasted for 12 h before the oral administration of berberine (2 mg) or berberine (2 mg)+Angelica sinensis (10 mg). Blood samples (100 μl) were collected from the facial vein at 1 hr after the administration. The serum of each blood sample was prepared and stored at −80° C. for further analysis. For in vivo study of berberine bioavailability, 50 μL of each serum sample was mixed with 400 μL of acetonitrile and vortexed thoroughly. The mixture was then centrifuged at 1000 rpm for 15 mins. The supernatant was dried under vacuum and resuspended into 50 μL of acetonitrile. All samples were analyzed using waters LC-MS system (Waters corp. MA) for berberine detection. Molecular weight was identified by LC-MS/TOF analysis in elctrospray (ESI) positive mode. The LCT premier TOF mass spectrometer (Waters Corporation, Milford, Mass.) was coupled to Waters Alliance 2695 HPLC system. […]. The mass range was from m/z 50 to 1000 in W optics mode. […]

[5] = tested on: phosphorylated-IκBα; assay: In-Cell Western of phosphorylated IκBα in PBMCs; assay type: cell-based, human; conditions: 10 μg/mL, vs non-treated stimulated cells
Description: PBMCs (1×10^5 cells/mL) were cultured with or without DMF-C1 (10 μg/mL) and stimulated with or without rIL-4 (100 ng/mL) and anti-CD40 (1 μg/mL) mAb for 10 days. In-Cell Western Assay (Li-Cor, Lincoln, Nebr.) was performed following the manufacturer's instructions. In brief, cells were incubated with antibodies against phosphorylated-IκBα (p-IκBα; Cell Signaling) and β-actin (Santa Cruz Biotechnology) overnight. After washing with 0.1% Tween PBS buffer, secondary antibodies IRDye800CW donkey anti-goat and IRDye680 donkey anti-rabbit (LI-Cor) were added and incubated at room temperature for 1 hour in the dark. Plates were scanned and analyzed with Odyssey CLx Infrared Imaging System.

[6] = tested on: B cells in Human PBMCs; assay: Apoptosis by flow cytometry, annexin V staining of CD19 B cells in PBMCs; assay type: cell-based; conditions: 10 μg/ml, 2 days incubation
[7] = tested on: STAT3; assay: RT-PCR gene expression in stimulated PBMCs: STAT3; assay type: cell-based, human; conditions: 10 μg/mL
Description: as §1

[8] = tested on: U266 cells; assay: IgE production by U266 myeloma cells, ELISA of supernatants; assay type: cell-based, human
Description: The IgE producing human U266 myeloma cell line (American Type Culture Collection; Rockville, Md.) has been used for screening pharmaceutical agents for IgE inhibitory effects, and thus this cell line was used to test the potential IgE inhibitory effects of herb extracts and purified compounds. Cells were cultured at 37° C. under 5% CO2 in complete media containing RPMI 1640 medium supplemented, 10% FBS, 1 mM sodium pyruvate, 1×10^-5 M β-ME and 0.5% penicillin-streptomycin. Cells were grown at an initial concentration of 2×10^5 cells/mL. FAHF-2 and B-FAHF-2, individual herb extracts and isolated compounds at different concentrations were added at day 0. Supernatants were harvested after 6 days culture, and IgE levels were determined by using an ELISA Kit (Mabtech Inc, OH). In each experiment, we run duplicate ELISA. In vitro experiments were repeated at least 3 times.
Human U266 myeloma cells (American Type Culture Collection; Rockville, Md.) were cultured in complete medium (RPMI 1640 medium supplemented, 10% FBS, 1 mM sodium pyruvate, 1×10^−5 M β-ME and 0.5% penicillin-streptomycin) at 37° C. under 5% CO2. Cells were grown at an initial concentration of 2×10^5 cells/mL with purpurin and alizarin from Rubia cordifolia L. at different concentrations (0.31, 0.62, 1.25, 2.5, 5 μg/mL), and with arctiin and arctigenin from Arctium lappa L. at different concentrations ([…]) for 6 days. The supernatants were harvested on day 6 for total IgE analysis using ELISA.

[9] = tested on: IL-10; assay: RT-PCR gene expression in stimulated PBMCs: IL-10; assay type: cell-based, human; conditions: 10 μg/mL
Description: as §1

concentration at 1 h [4]: 280 ng/mL
IC50 ([8]; Homo sapiens, U-266, 144 h, 6 days culture, read-out: IC50 of inhibition of IgE production by U266 cells): 3.95 µg/mL
SMILES: COc1ccc2cc3[n+](cc2c1OC)CCc1cc2c(cc1-3)OCO2 [berberine]
mRNA expression of T-bet [1]: significantly increased
cell viability of U266 cells [2]: no toxicity
mRNA level of Foxp3 [3]: trend of increase
phosphorylated IκBα levels [5]: significantly suppressed
annexin V stained B cells [6]: about 16%
mRNA expression of STAT-3 [7]: significantly increased
inhibition at 20 µg/mL ([8]; Homo sapiens, U-266, 144 h, 20 μg/mL, 6 days): 94.6%
effect on IgE production by U266 cells (in words) ([8]; different concentrations, 6 days): inhibited IgE production in a dose-dependent manner
mRNA level of IL-10 [9]: trend of increase
